Source: PubChem BioAssay AID328 (DTP/NCI, 2004)
Where “and” joins values, the source holds several entries; their conditions need not be identical. Equal values may be shown once. Inconclusive results and toxic doses are left out.

Tested on: BDF1 mice, P388 leukemia ip, median survival T/C
Test: NCI In Vivo Anticancer Drug Screen. Data for tumor model P388 Leukemia (intraperitoneal) in B6D2F1 (BDF1) mice
Details: endpoint: median survival time, higher = longer survival
In short: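 Each value expresses how treatment altered survival: treated-mouse outcome over vehicle-mouse outcome, both groups bearing the transplanted tumour.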

What does the source list for `COc1cc2cc3c4cc(OC)c(OC)cc4cc[n+]3c(C)c2cc1OC` (tested in a mixture with another compound)?
T/C (dose: 8.0 mg/kg/injection, schedule: Q01DX008 (ip), vehicle: other): 156 % of control; T/C (dose: 8.0 mg/kg/injection, schedule: Q01DX009 (ip), vehicle: clinical formulation): 155 % of control; T/C (dose: 8.0 mg/kg/injection, schedule: Q03HX008 (ip), vehicle: other): 111 % of control; T/C (dose: 9.3 mg/kg/injection, schedule: Q01DX009 (ip), vehicle: saline): 150 % of control; T/C (dose: 12.5 mg/kg/injection, schedule: Q04DX003 (ip), vehicle: other): 121 % of control; T/C (dose: 16.0 mg/kg/injection, schedule: Q01DX008 (ip), vehicle: other): 154 % of control; T/C (dose: 16.0 mg/kg/injection, schedule: Q01DX008 (ip), vehicle: water): 163 % of control; T/C (dose: 16.0 mg/kg/injection, schedule: Q01DX009 (ip), vehicle: Klucel (hydroxypropylcellulose) (HPC)): 157 % of control; T/C (dose: 16.0 mg/kg/injection, schedule: Q01DX009 (ip), vehicle: clinical formulation): 161 % of control; T/C (dose: 16.0 mg/kg/injection, schedule: Q01DX009 (oral), vehicle: other): 94 % of control; T/C (dose: 16.0 mg/kg/injection, schedule: Q01DX009 (sc), vehicle: other): 101 % of control; T/C (dose: 16.0 mg/kg/injection, schedule: Q03HX016 (ip), vehicle: other): 153 % of control; T/C (dose: 16.0 mg/kg/injection, schedule: Q03HX024 (ip), vehicle: other): 174 % of control; T/C (dose: 32.0 mg/kg/injection, schedule: Q01DX008 (ip), vehicle: Klucel (hydroxypropylcellulose) (HPC)): 182 % of control; T/C (dose: 32.0 mg/kg/injection, schedule: Q01DX008 (ip), vehicle: other): 167 % of control; T/C (dose: 32.0 mg/kg/injection, schedule: Q01DX008 (ip), vehicle: water): 163 % of control; T/C (dose: 32.0 mg/kg/injection, schedule: Q01DX009 (ip), vehicle: Klucel (hydroxypropylcellulose) (HPC)): 186 % of control; T/C (dose: 32.0 mg/kg/injection, schedule: Q01DX009 (ip), vehicle: clinical formulation): 211 % of control; T/C (dose: 32.0 mg/kg/injection, schedule: Q01DX009 (oral), vehicle: other): 103 % of control; T/C (dose: 32.0 mg/kg/injection, schedule: Q01DX009 (sc), vehicle: other): 115 % of control; T/C (dose: 32.0 mg/kg/injection, schedule: Q03HX016 (ip), vehicle: other): 182 % of control; T/C (dose: 32.0 mg/kg/injection, schedule: Q03HX024 (ip), vehicle: other): 190 % of control; T/C (dose: 37.5 mg/kg/injection, schedule: Q01DX009 (ip), vehicle: saline): 175 % of control; T/C (dose: 37.5 mg/kg/injection, schedule: Q04DX003 (ip), vehicle: saline): 162 % of control; T/C (dose: 46.7 mg/kg/injection, schedule: Q04DX003 (ip), vehicle: alkali diluted with saline): 165 % of control; T/C (dose: 50.0 mg/kg/injection, schedule: Q04DX002 (ip), vehicle: saline): 154 % of control; T/C (dose: 50.0 mg/kg/injection, schedule: Q04DX003 (ip), vehicle: saline): 157 % of control; T/C (dose: 50.0 mg/kg/injection, schedule: Q04DX003 (ip), vehicle: water): 158 % of control; T/C (dose: 64.0 mg/kg/injection, schedule: Q01DX001 (ip), vehicle: other): 120 % of control; T/C (dose: 64.0 mg/kg/injection, schedule: Q01DX001 (oral), vehicle: other): 100 % of control; T/C (dose: 64.0 mg/kg/injection, schedule: Q01DX001 (sc), vehicle: other): 103 % of control; T/C (dose: 64.0 mg/kg/injection, schedule: Q01DX008 (ip), vehicle: Klucel (hydroxypropylcellulose) (HPC)): 208 % of control; T/C (dose: 64.0 mg/kg/injection, schedule: Q01DX008 (ip), vehicle: other): 206 % of control; T/C (dose: 64.0 mg/kg/injection, schedule: Q01DX008 (ip), vehicle: water): 185 % of control; T/C (dose: 64.0 mg/kg/injection, schedule: Q01DX009 (ip), vehicle: Klucel (hydroxypropylcellulose) (HPC)): 182 % of control and 203 % of control; T/C (dose: 64.0 mg/kg/injection, schedule: Q01DX009 (ip), vehicle: clinical formulation): 194 % of control; T/C (dose: 64.0 mg/kg/injection, schedule: Q01DX009 (oral), vehicle: other): 107 % of control; T/C (dose: 64.0 mg/kg/injection, schedule: Q04DX003 (ip), vehicle: other): 161 % of control and 163 % of control; T/C (dose: 64.0 mg/kg/injection, schedule: Q04DX003 (ip), vehicle: water): 159 % of control; T/C (dose: 75.0 mg/kg/injection, schedule: Q01DX001 (ip), vehicle: saline): 154 % of control; T/C (dose: 75.0 mg/kg/injection, schedule: Q01DX009 (ip), vehicle: saline): 183 % of control; T/C (dose: 75.0 mg/kg/injection, schedule: Q04DX003 (ip), vehicle: saline): 158 % of control; T/C (dose: 77.8 mg/kg/injection, schedule: Q04DX003 (ip), vehicle: alkali diluted with saline): 165 % of control; T/C (dose: 86.4 mg/kg/injection, schedule: Q04DX003 (ip), vehicle: other): 193 % of control; T/C (dose: 100.0 mg/kg/injection, schedule: Q04DX002 (ip), vehicle: saline): 154 % of control and 169 % of control; T/C (dose: 100.0 mg/kg/injection, schedule: Q04DX003 (ip), vehicle: other): 155 % of control; T/C (dose: 100.0 mg/kg/injection, schedule: Q04DX003 (ip), vehicle: water): 200 % of control; T/C (dose: 128.0 mg/kg/injection, schedule: Q01DX001 (oral), vehicle: other): 98 % of control; T/C (dose: 128.0 mg/kg/injection, schedule: Q01DX001 (sc), vehicle: other): 100 % of control; T/C (dose: 128.0 mg/kg/injection, schedule: Q01DX008 (ip), vehicle: other): 156 % of control; T/C (dose: 128.0 mg/kg/injection, schedule: Q01DX009 (ip), vehicle: Klucel (hydroxypropylcellulose) (HPC)): 186 % of control; T/C (dose: 128.0 mg/kg/injection, schedule: Q01DX009 (oral), vehicle: other): 103 % of control; T/C (dose: 128.0 mg/kg/injection, schedule: Q01DX009 (sc), vehicle: other): 159 % of control; T/C (dose: 128.0 mg/kg/injection, schedule: Q04DX003 (ip), vehicle: Klucel (hydroxypropylcellulose) (HPC)): 156 % of control; T/C (dose: 128.0 mg/kg/injection, schedule: Q04DX003 (ip), vehicle: other): 167 % of control and 175 % of control; T/C (dose: 128.0 mg/kg/injection, schedule: Q08DX002 (ip), vehicle: other): 155 % of control; T/C (dose: 130.0 mg/kg/injection, schedule: Q04DX003 (ip), vehicle: alkali diluted with saline): 180 % of control; T/C (dose: 144.0 mg/kg/injection, schedule: Q04DX003 (ip), vehicle: other): 207 % of control; T/C (dose: 150.0 mg/kg/injection, schedule: Q01DX001 (ip), vehicle: saline): 150 % of control; T/C (dose: 150.0 mg/kg/injection, schedule: Q04DX003 (ip), vehicle: saline): 175 % of control; T/C (dose: 200.0 mg/kg/injection, schedule: Q04DX002 (ip), vehicle: saline): 163 % of control and 176 % of control; T/C (dose: 200.0 mg/kg/injection, schedule: Q04DX003 (ip), vehicle: other): 189 % of control; T/C (dose: 216.0 mg/kg/injection, schedule: Q04DX003 (ip), vehicle: alkali diluted with saline): 205 % of control; T/C (dose: 256.0 mg/kg/injection, schedule: Q01DX001 (oral), vehicle: other): 103 % of control; T/C (dose: 256.0 mg/kg/injection, schedule: Q01DX001 (sc), vehicle: other): 108 % of control; T/C (dose: 256.0 mg/kg/injection, schedule: Q01DX009 (oral), vehicle: other): 112 % of control; T/C (dose: 256.0 mg/kg/injection, schedule: Q04DX003 (ip), vehicle: Klucel (hydroxypropylcellulose) (HPC)): 156 % of control; T/C (dose: 256.0 mg/kg/injection, schedule: Q04DX003 (ip), vehicle: other): 206 % of control and 208 % of control; T/C (dose: 256.0 mg/kg/injection, schedule: Q08DX002 (ip), vehicle: other): 174 % of control; T/C (dose: 300.0 mg/kg/injection, schedule: Q01DX001 (ip), vehicle: saline): 166 % of control; T/C (dose: 300.0 mg/kg/injection, schedule: Q04DX003 (ip), vehicle: saline): 220 % of control; T/C (dose: 400.0 mg/kg/injection, schedule: Q04DX002 (ip), vehicle: saline): 163 % of control; T/C (dose: 512.0 mg/kg/injection, schedule: Q01DX001 (oral), vehicle: other): 99 % of control; T/C (dose: 512.0 mg/kg/injection, schedule: Q01DX001 (sc), vehicle: other): 107 % of control; T/C (dose: 512.0 mg/kg/injection, schedule: Q01DX009 (oral), vehicle: other): 112 % of control
